Laboratory results from patent US7202265B2, “Indolinone combinatorial libraries and related products and methods for the treatment of disease” (Sugen, Inc., priority 1997, dated 2007).
Like-named read-outs stand apart in the source and are kept apart here.

Experiments:
EGFR = target: T1, EGFR (Homo sapiens, UniProt P00533); assay: EGFR ELISA assay (in vitro kinase activity, A431 cell lysate); assay type: biochemical; set-up: concentration or dose not given beside the values
T1 construct: Add 7 ug A431 cell lysate per well (EGFR source); endogenous in cells; host or cells: A431 cells (lysate)
Experimental: To provide a consistent method for measuring the in vitro kinase activity of the EGFR in an Enzyme-linked immunosorbent assay (Elisa).
Scope. The following protocol describes the procedures used to analyze protein tyrosine kinase activity on the EGFR in an Elisa. The procedure also describes the protocol for the initial screening of drugs for inhibition or activation of protein tyrosine kinase activity.
1. Coat Corning 96-well elisa plates with 0.5 ug per well 05-101 antibody. • Bring final volume to 100 ul per well with PBS. • Coat plates overnight at […].
2. Remove unbound 05-101 from wells by inverting plate to remove liquid. • Wash 1× with distilled H2O by filling wells • Pat the plate on a paper towel to remove excess liquid.
3. Block plates with 5% milk in PBS. • 150 ul per well. • Incubate plate 30 minutes while shaking on a microtiter plate shaker.
4. Wash plate 3× with dionized water, then once with TBST
5. Add 7 ug A431 cell lysate per well (EGFR source). • Add PBS to final volume of 100 ul per well • Incubate 30 minutes while shaking.
6. Wash as described in step 4.
8. […] It is best to add the ATP/MnCl2 with an 12 channel pipettor 1 row at a time leaving 20 seconds between each row so that the reaction may be stopped with EDTA exactly 5 minutes later (this depends on the number of plates being phosphorylated in one batch). Shake between each addition.
9. After 5 minutes, to stop reaction, add 16.5 ul of 200 mM EDTA pH 8.0 for 20 mM final in well, shaking continuously between each addition. This is done using the same timing method as above. After last row has received EDTA, shake plate an additional minute.
10. Wash 4× with deionized water, twice with TBST.
11. Add rabbit polyclonal anti-phosphotyrosine serum. • Dilute 1:3000 in TBST. • Add 100 ul per well. • Incubate 30–45 minutes while shaking.
12. Wash as described above in step 4.
13. Add BioSource anti-rabbit peroxidase conjugate antibody. • Dilute 1:2000 in TBST. • Add 100 ul per well. • Incubate 30 minutes while shaking.
14. Wash as described in step 4.
15. Add 100 ul of ABTS/H2O2 solution to well. • Incubate 5 to 10 minutes while shaking. • Remove bubbles
16. If necessary stop reaction with the addition of 100 ul of 0.2M HCl per well
17. Read assay on Dynatech MR7000 elisa reader. • Test Filter: 410 nM • Reference Filter: 630 nM

FLK-1 receptor = target: T2, FLK-1 receptor (Mus musculus, UniProt P35918); assay: FLK-1 ELISA (catalytic activity of the FLK-1 receptor in FLK-1/NIH3T3 cells); assay type: cell-based; set-up: Flk Kinase % Inhibition: concentration or dose not given beside the values
T2 construct: expressed in transfected cells; host or cells: NIH3T3 C7#3 (FLK-1/NIH3T3)

human MET = assay: MET biochemical kinase assay; set-up: concentration or dose not given beside the values
Method in brief: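 MET captured from cell lysates onto plates coated with goat anti-rabbit Fc plus rabbit polyclonal anti-MET cytoplasmic-domain antibody; after washing, compounds added with kinase buffer containing ATP and divalent metal ions. Receptor tyrosine phosphorylation detected by HRP-conjugated anti-phosphotyrosine antibody, TMB colorimetric read-out.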

[1] = target: platelet derived growth factor protein kinase (PDGFR) (Homo sapiens, UniProt P09619); assay: PDGF-R ELISA; assay type: cell-based; set-up: concentration or dose not given beside the values
From the text: A PDGF-R ELISA is described in International Patent Publication No. WO 96/40116, published Dec. 19, 1996 by Tang et al.

[2] = Table 10, read-out: FLK Kinase IC50
[3] = Table 2, read-out: FLK Kinase IC50

T1 sequence (P00533 25-1210): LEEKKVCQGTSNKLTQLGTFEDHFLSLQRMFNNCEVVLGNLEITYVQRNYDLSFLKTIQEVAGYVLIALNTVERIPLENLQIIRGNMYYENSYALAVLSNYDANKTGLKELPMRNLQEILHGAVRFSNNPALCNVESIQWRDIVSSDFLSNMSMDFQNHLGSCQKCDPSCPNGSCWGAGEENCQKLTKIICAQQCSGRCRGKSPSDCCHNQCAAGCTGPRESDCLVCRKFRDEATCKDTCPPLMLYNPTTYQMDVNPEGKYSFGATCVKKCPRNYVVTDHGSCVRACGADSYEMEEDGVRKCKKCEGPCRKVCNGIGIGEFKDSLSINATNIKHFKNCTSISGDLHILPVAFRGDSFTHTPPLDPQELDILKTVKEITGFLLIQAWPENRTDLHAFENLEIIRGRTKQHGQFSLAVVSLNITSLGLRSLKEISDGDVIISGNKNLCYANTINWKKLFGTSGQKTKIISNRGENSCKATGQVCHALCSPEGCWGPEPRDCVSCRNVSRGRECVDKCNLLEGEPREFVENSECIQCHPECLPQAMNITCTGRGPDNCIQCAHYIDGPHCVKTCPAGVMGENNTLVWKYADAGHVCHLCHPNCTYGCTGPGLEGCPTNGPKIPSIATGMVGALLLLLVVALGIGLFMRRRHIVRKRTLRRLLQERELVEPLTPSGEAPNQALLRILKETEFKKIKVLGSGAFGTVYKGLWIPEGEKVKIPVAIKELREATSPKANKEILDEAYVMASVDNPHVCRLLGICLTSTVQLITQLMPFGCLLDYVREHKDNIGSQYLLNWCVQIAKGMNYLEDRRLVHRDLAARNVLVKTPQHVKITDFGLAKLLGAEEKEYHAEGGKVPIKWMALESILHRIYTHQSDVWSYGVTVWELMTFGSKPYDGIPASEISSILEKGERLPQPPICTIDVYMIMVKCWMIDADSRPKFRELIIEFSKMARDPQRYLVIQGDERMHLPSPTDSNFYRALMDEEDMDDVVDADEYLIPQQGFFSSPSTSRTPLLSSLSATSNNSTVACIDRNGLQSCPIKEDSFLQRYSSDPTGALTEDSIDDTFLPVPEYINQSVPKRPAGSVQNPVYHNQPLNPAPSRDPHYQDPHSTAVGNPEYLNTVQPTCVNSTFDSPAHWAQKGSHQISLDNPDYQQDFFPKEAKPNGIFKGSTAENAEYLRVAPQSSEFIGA
Chain of platelet derived growth factor protein kinase (PDGFR) (P09619 33-1106): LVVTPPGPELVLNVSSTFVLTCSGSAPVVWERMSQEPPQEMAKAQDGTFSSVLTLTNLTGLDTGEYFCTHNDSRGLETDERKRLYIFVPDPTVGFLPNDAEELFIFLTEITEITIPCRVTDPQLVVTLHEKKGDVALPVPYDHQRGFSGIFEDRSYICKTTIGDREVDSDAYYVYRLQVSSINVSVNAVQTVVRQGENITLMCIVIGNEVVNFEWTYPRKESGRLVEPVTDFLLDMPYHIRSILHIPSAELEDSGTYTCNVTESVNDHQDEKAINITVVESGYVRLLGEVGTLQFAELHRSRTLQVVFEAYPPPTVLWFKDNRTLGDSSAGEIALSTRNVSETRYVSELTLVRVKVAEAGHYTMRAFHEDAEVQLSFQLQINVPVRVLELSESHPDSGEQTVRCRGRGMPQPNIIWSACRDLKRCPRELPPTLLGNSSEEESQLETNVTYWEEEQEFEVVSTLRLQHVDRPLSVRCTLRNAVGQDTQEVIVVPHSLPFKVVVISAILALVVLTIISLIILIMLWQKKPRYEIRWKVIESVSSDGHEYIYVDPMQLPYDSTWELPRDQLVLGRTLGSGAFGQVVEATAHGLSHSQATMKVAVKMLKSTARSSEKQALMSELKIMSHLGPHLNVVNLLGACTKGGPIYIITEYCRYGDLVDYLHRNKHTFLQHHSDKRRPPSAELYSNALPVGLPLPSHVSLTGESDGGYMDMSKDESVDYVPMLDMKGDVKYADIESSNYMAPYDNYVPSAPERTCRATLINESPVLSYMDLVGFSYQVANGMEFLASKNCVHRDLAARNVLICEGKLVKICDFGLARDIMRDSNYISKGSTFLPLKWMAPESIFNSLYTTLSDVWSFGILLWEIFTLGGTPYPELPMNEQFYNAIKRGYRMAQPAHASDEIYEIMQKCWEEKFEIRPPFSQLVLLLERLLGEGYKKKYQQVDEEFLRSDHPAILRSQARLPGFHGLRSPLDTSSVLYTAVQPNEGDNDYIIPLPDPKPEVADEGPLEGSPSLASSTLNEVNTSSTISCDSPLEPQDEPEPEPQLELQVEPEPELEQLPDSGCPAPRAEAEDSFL
T2 sequence (P35918 20-1345): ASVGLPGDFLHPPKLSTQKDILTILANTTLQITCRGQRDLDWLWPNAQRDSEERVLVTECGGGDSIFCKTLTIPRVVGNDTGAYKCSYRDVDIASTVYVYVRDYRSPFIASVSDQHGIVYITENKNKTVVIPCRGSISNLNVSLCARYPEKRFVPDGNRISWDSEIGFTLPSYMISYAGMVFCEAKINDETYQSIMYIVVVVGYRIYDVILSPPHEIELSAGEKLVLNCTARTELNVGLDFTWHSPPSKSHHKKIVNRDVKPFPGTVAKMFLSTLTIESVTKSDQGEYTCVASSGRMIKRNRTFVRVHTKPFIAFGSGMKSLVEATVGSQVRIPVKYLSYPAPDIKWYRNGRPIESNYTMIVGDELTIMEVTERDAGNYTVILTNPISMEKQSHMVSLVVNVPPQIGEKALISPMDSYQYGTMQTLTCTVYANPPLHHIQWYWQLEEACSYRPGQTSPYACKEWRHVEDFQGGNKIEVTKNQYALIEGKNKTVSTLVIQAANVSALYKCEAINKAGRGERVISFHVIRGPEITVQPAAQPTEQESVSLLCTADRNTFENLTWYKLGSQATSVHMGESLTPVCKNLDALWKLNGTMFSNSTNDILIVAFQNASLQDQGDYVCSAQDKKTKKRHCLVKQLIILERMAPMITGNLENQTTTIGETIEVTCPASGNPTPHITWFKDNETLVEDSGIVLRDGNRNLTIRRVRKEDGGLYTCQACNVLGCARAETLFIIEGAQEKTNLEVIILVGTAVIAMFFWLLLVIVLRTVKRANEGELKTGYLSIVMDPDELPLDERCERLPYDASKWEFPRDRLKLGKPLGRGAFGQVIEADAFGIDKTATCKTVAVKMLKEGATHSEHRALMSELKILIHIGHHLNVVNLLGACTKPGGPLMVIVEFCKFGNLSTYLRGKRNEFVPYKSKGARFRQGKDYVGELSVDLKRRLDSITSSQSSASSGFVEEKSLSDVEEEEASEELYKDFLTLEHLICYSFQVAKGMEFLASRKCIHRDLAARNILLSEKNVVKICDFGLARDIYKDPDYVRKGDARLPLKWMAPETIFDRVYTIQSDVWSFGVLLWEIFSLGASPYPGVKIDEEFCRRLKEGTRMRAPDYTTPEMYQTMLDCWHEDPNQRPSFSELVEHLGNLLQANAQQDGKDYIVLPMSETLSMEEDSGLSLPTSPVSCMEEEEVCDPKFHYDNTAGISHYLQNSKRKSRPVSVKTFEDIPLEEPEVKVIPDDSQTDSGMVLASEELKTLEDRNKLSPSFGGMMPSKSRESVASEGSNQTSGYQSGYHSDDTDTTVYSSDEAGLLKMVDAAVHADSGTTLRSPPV

Compound | Biochem EGFR % Inhibition (EGFR) | Flk Kinase % Inhibition (FLK-1 receptor) | Met Kinase % Inhibition (human MET) | IC50 (FLK-1 receptor; [2]) | other results
O=C1Nc2ccc(I)cc2C1=Cc1cc2c3c(c1O)CCCN3CCC2 [10724/B05] | 21.2% | −2.2% | 45.6% | – | PDGF Kinase % Inhibition [1]: 12.6%
O=C1Nc2ccc(I)cc2C1=Cc1ccc2c(c1)Cc1ccccc1-2 [10728/B06] | 38.1% | 4.7% | 56.0% | – | PDGF Kinase % Inhibition [1]: 7.6%
Cc1cc(C=C2C(=O)Nc3ccc(I)cc32)cc(C)c1O [10722/B07] | 6.2% | 6.6% | 48.2% | – | PDGF Kinase % Inhibition [1]: 20.9%
Cn1c(C=C2C(=O)Nc3ccc(I)cc32)nc2ccccc21 [10721/B02] | 58.6% | 19.5% | 82.6% | – | –
Cc1cc(C=C2C(=O)Nc3ccc(I)cc32)sc1C [10721/B04] | 79.3% | 13.8% | 93.1% | – | –
COc1c(I)cc(C=C2C(=O)Nc3ccc(S(=O)(=O)N4CCOCC4)cc32)cc1C(C)(C)C [10732/F11] | – | 14.1% | 65.1% | – | –
CNS(=O)(=O)c1ccc2c(c1)C(=Cc1ccc(F)cc1C(F)(F)F)C(=O)N2 [10719/D11] | −11.1% | −8.7% | 12.8% | – | –
CCc1cc(CC)c(/C=C2\C(=O)Nc3cccc(C)c32)[nH]1 | – | – | – | 17.3 µM | –
Cc1cc(C)n(C)c1/C=C1\C(=O)Nc2ccc(N)cc21 | – | – | – | 1.1 µM | –
Cn1cc(Cl)c(C=C2C(=O)Nc3ccc(I)cc32)n1 [10721/B03] | 38.9% | 19.9% | 70.8% | – | –
COc1c(O)ccc(/C=C2\C(=O)Nc3ccc(Cl)cc32)c1[N+](=O)[O-] | – | – | – | 10.7 µM | –
Cc1[nH]c(/C=C2\C(=O)Nc3ccc(N)cc32)c(Br)c1Br | – | – | – | 1.9 µM | –
COC(=O)CCc1c[nH]c(/C=C2\C(=O)Nc3ccc(Cl)cc32)c1C | – | – | – | 5.6 µM | –
O=C1Nc2ccc(I)cc2C1=Cc1csc([N+](=O)[O-])c1 [10722/B09] | 7.8% | 8.7% | 59.7% | – | PDGF Kinase % Inhibition [1]: 14.6%
CCOC(=O)c1c(C)c(/C=C2\C(=O)Nc3ccccc32)n(C)c1C | – | – | – | 0.97 µM | –
Cc1ccc(C=C2C(=O)Nc3ccc(I)cc32)o1 [10725/B04] | 76.9% | 1.1% | 90.4% | – | PDGF Kinase % Inhibition [1]: 9.3%
Nc1ccc2c(c1)/C(=C/c1cc3c([nH]1)CCCC3)C(=O)N2 | – | – | – | – | IC50 (FLK-1 receptor; Table 6, read-out: FLK Kinase IC50): 1.2 µM
O=C1Nc2ccc(I)cc2C1=Cc1ccc([N+](=O)[O-])c(O)c1 [10724/B04] | 50.2% | −20.5% | 81.2% | – | PDGF Kinase % Inhibition [1]: 42.5%
O=C1Nc2ccc(I)cc2C1=Cc1ccc(Cl)s1 [10721/B07] | 47.6% | 11.2% | 47.1% | – | –

Compound | Biochem EGFR % Inhibition (EGFR) | Flk Kinase % Inhibition (FLK-1 receptor) | Met Kinase % Inhibition (human MET) | IC50 (FLK-1 receptor; [2]) | other results
Cn1cc(/C=C2\C(=O)Nc3ccc(F)cc32)c2ccccc21 | – | – | – | – | IC50 (FLK-1 receptor; [3]): 14 µM
O=C1Nc2ccc(Cl)cc2/C1=C/c1ccc(N2CCCC2)cc1 | – | – | – | 12.3 µM | –
Cc1cc(Cl)cc2c1NC(=O)/C2=C\c1cc(O)c(O)c(Br)c1 | – | – | – | 18.5 µM | –
CCc1cc(CC)c(/C=C2\C(=O)Nc3ccccc32)[nH]1 | – | – | – | 8.1 µM | –
O=C1Nc2ccc(I)cc2C1=Cc1cc([N+](=O)[O-])cc(CCl)c1O [10721/B06] | 71.5% | 3.4% | 92.4% | – | –
COc1ccc2[nH]cc(/C=C3\C(=O)Nc4ccccc43)c2c1 | – | – | – | – | IC50 (FLK-1 receptor; [3]): 13 µM
O=C1Nc2ccccc2/C1=C\c1cc2c([nH]1)CCCC2 [compound 0128] | – | – | – | – | IC50 (FLK-1 receptor; Table 7, read-out: Activity 1C50 FLK Kinase): 1.7 µM
CNS(=O)(=O)c1ccc2c(c1)C(=Cc1cccc(C#N)c1)C(=O)N2 [10727/D08] | – | – | 8.5% | – | PDGF Kinase % Inhibition [1]: 5.0%
O=CN1CCN(c2ccc(/C=C3\C(=O)Nc4ccccc43)cc2)CC1 | – | – | – | 6.2 µM | –
CNS(=O)(=O)c1ccc2c(c1)C(=Cc1c(OC)ccc3ccccc13)C(=O)N2 [10729/D02] | 5.7% | – | – | – | –
CCOC(=O)CCc1c(C(=O)OCC)[nH]c(C=C2C(=O)Nc3ccc(I)cc32)c1CC(=O)OCC [10718/B05] | 56.3% | 11.5% | 76.0% | – | –
O=C1Nc2ccc(Cl)cc2/C1=C/c1c[nH]cn1 | – | – | – | 5.6 µM | –
Cc1ccc(C=C2C(=O)Nc3c(Br)cc(Br)cc32)o1 [10725/A04] | 26.2% | −8.6% | 55.3% | – | PDGF Kinase % Inhibition [1]: −3.2%
CN(C)c1ccc(C=C2C(=O)Nc3ccc(I)cc32)c2ccccc12 [10724/B02] | 34.9% | −6.2% | 48.8% | – | PDGF Kinase % Inhibition [1]: −21.5%
Cc1cc(C)c2c(c1)NC(=O)/C2=C\c1c[nH]cn1 | – | – | – | 4.6 µM | –
CCc1c(C)[nH]c(/C=C2\C(=O)Nc3ccc(N)cc32)c1C | – | – | – | 1.5 µM | –
COC(=O)CCc1c[nH]c(/C=C2\C(=O)Nc3ccc(N)cc32)c1C | – | – | – | 4.7 µM | –
O=C1Nc2ccc(Cl)cc2/C1=C/c1ccc(O)c(Br)c1 | – | – | – | 5.2 µM | –
CC(C)(C)c1ccc(/C=C2\C(=O)Nc3ccccc32)cc1 | – | – | – | 9.7 µM | –
